# Measurements from US12384753B2, “17-beta-hydroxysteroid dehydrogenase type 13 inhibitors and methods of use thereof” (Enanta Pharmaceuticals, Inc., priority 2021, dated 2025).
# Target: Recombinant human HSD17B13 (Homo sapiens (Human), UniProt Q7Z5P4)
# Assay: HSD17B13 rapid-fire mass spectrometry assay (RF/MS assay)
# Assay type: biochemical
# Settings: inhibition of HSD17B13; LTB4 10 μM, NAD+ 0.5 mM, RT 3 h; IC50 ranges A-E
# Outline: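 Sf9-expressed human HSD17B13 (80 nM) with 10 μM LTB4 and 0.5 mM NAD+, incubated with compound (0–100 μM) for 3 h at RT in Tris pH 7.5/BSA/Tween-20. After formic acid quench, LTB4 conversion to 12-oxo-LTB4 measured by RapidFire MS/MS. IC50 from normalised residual activity, duplicates.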
# Sequence of Recombinant human HSD17B13 (Q7Z5P4 20-300): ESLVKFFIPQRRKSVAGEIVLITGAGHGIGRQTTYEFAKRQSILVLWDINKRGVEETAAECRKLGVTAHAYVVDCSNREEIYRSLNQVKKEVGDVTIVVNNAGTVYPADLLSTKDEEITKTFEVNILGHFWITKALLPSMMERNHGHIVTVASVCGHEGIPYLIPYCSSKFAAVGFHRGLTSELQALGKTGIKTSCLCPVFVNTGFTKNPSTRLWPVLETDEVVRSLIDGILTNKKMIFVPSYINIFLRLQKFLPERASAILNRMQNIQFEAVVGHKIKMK
row,SMILES,IC50 [nM]
1,COc1cc(C(=O)O)ccc1NS(=O)(=O)c1nc(-c2ccc(F)cc2)sc1-c1ccccc1 [Example 306],1000 to 100000
2,COc1cc(C(=O)O)ccc1NS(=O)(=O)c1csc(-c2ccc(F)c3ccccc23)n1 [Example 88],1000 to 100000
3,O=C(O)c1ccc(NS(=O)(=O)c2cnc(-c3ccc(F)cc3)s2)c(C(F)F)c1 [Example 173],1000 to 100000
4,COc1cc(C(=O)O)c(F)cc1NS(=O)(=O)c1csc(-c2ccc(-c3ccc(C45CC6C[C@H](C4)C[C@H](C6)C5)cc3)cc2)n1 [Example 731],< 100
5,CC(C)Oc1cc(C(=O)O)ccc1NS(=O)(=O)c1cnc(-c2ccc(F)cc2)s1 [Example 37],1000 to 100000
6,COc1cc(C(=O)O)c(Cl)cc1NS(=O)(=O)c1cnc(-c2ccc(F)cc2)s1 [Example 78],500 to 1000
7,"COc1cc2c(cc1C(=O)O)CN(S(=O)(=O)c1ccc(F)cc1)CC2 [Example 5, 2-((4-fluorophenyl)sulfonyl)-6-methoxy-1,2,3,4-tetrahydroisoquinoline-7-carboxylic acid]",> 100000
8,COc1cc(C(=O)O)c(F)cc1NS(=O)(=O)c1ccc2nc(-c3ccc([C@H]4CC[C@H](C(F)(F)F)CC4)cc3)sc2c1 [Example 659],500 to 1000
9,COc1cc(C(=O)O)c(F)cc1NS(=O)(=O)c1ccc2sc(-c3ccc(C4CCC(C)(C)CC4)cc3C(F)(F)F)nc2c1 [Example 704],100 to 500
10,COc1cc(C(=O)O)ccc1NS(=O)(=O)c1csc(-c2ccc(F)cc2)n1 [Example 749],100 to 500
11,COc1cc(C(=O)O)ccc1NS(=O)(=O)c1csc(N2CCCC(c3ccccc3)C2)n1 (centres unmarked) [Example 269],100 to 500
12,COc1cc(C(=O)O)c(F)cc1NS(=O)(=O)c1ccc2sc(-c3ccc(C4CCCC4)cc3)nc2c1 [Example 662],100 to 500
13,COc1cc(C(=O)O)ccc1NS(=O)(=O)c1csc(-c2ccc(C3CCC(OC)CC3)cc2)n1 (centres unmarked) [Example 380],100 to 500
14,O=C(O)c1ccc2nc(NS(=O)(=O)c3cnc(-c4ccc(F)cc4)s3)oc2c1 [Example 93],1000 to 100000
15,COc1cc(C(=O)O)ccc1NS(=O)(=O)c1csc(N2CCC(c3ccccc3)C2)n1 (centres unmarked) [Example 259],1000 to 100000
16,O=C(O)c1ccc(NS(=O)(=O)c2cccc(S(=O)(=O)Nc3ccc(C(=O)O)cc3O)c2)c(O)c1 [Example 170],100 to 500
17,"COc1cc(C(=O)O)ccc1NS(=O)(=O)c1csc(N2CCN(C(=O)OCC3CCCCC3)CC2)n1 [Example 307, 4-((2-(4-((cyclohexylmethoxy)carbonyl)piperazin-1-yl)thiazole)-4-sulfonamido)-3-methoxybenzoic acid]",500 to 1000
18,COc1cc(OC(F)F)ccc1NS(=O)(=O)c1cnc(-c2ccc(F)cc2)s1 [Example 122],1000 to 100000

# Results, then the molecule that gave them:
row,IC50 [nM],SMILES
1,100 to 500,COc1cc(C(=O)O)c(F)cc1NS(=O)(=O)c1csc(-c2ccc(-c3ccc(C4=CCC(C(C)C)CC4)cc3C(F)(F)F)cc2C(F)(F)F)n1 (centres unmarked) [Example 742]
2,100 to 500,COc1cc(C(=O)O)ccc1NS(=O)(=O)c1ccc(-c2cnc(-c3ccccc3)s2)c(F)c1 [Example 332]
3,< 100,COc1cc(C(=O)O)ccc1NS(=O)(=O)c1csc(C#Cc2ccccc2Cl)n1 [Example 196]
4,< 100,"COc1ccc(C#Cc2nc(S(=O)(=O)Nc3ccc(C(=O)O)cc3OC)cs2)c(C(C)C)c1 [Example 399, 4-((2-((2-isopropyl-4-methoxyphenyl)ethynyl)thiazole)-4-sulfonamido)-3-methoxybenzoic acid]"
5,100 to 500,"COc1cc(C(=O)O)ccc1NS(=O)(=O)c1cccc(C#Cc2cccc(OC(F)(F)F)c2)n1 [Example 463, 3-methoxy-4-((6-((3-(trifluoromethoxy)phenyl)ethynyl)pyridine)-2-sulfonamido)benzoic acid]"
6,< 100,COc1cc(C(=O)O)c(F)cc1NS(=O)(=O)c1csc(-c2ccc(C3=CCC(C(C)(C)C)CC3)c(OC(C)C)c2F)n1 (centres unmarked) [Example 593]
7,< 100,COc1cc(C(=O)O)ccc1NS(=O)(=O)c1cnc(-c2ccc([C@H]3CC[C@@H](C(F)(F)F)CC3)cc2)s1 [Example 712]
8,< 100,COc1cc(C(=O)O)ccc1NS(=O)(=O)c1csc(C#Cc2ccccc2OC(F)(F)F)n1 [Example 238]
9,100 to 500,COc1cc(C(=O)O)ccc1NS(=O)(=O)c1csc(C#Cc2ccncc2)n1 [Example 216]
10,100 to 500,"COc1cc(C(=O)O)ccc1NS(=O)(=O)c1cccc(-c2ccc([C@H]3CC[C@@H](C(F)(F)F)CC3)cc2)c1F [Example 474, 4-((2-fluoro-4′-((1s,4s)-4-(trifluoromethyl)cyclohexyl)-[1,1′-biphenyl])-3-sulfonamido)-3-methoxybenzoic acid]"
11,100 to 500,CC[C@H]1CC[C@@H](c2ccc(-c3nc(S(=O)(=O)Nc4ccc(C(=O)O)cc4OC)co3)cc2)CC1 [Example 489]
12,< 100,COc1cc(C(=O)O)c(F)cc1NS(=O)(=O)c1coc(-c2ccc(C3=CCC(C(F)(F)F)CC3)cc2C(F)(F)F)n1 (centres unmarked) [Example 677]
13,100 to 500,COc1cc(C(=O)O)ccc1NS(=O)(=O)c1coc(-c2ccc(C(C)(C)C)cc2)n1 [Example 465]
14,< 100,COc1cc(C(=O)O)c(F)cc1NS(=O)(=O)c1csc(-c2ccc([C@H]3CC[C@H](C(C)C)CC3)c(F)c2F)n1 [Example 773]
15,< 100,COc1cc(C(=O)O)c(F)cc1NS(=O)(=O)c1csc(-c2ccc(C3CCC(C)(C)CC3)c(OC(C)C)c2F)n1 [Example 567]
16,100 to 500,COc1cc(C(=O)O)ccc1NS(=O)(=O)c1csc(-c2ccc(O)cc2)n1 [Example 128]
17,100 to 500,COc1cc(C(=O)O)c(F)cc1NS(=O)(=O)c1cnc(-c2ccc(C3=CC=C(F)CC3)cc2)s1 [Example 726]
18,< 100,COc1cc(C(=O)O)c(F)cc1NS(=O)(=O)c1csc(-c2ccc(C3=CCC(C(F)(F)F)CC3)c(F)c2C)n1 (centres unmarked) [Example 599]
19,100 to 500,COc1cc(C(=O)O)ccc1NS(=O)(=O)c1ccc(-c2ccc(-c3ccc(OC(F)(F)F)cc3)cc2)s1 [Example 219]
20,100 to 500,COc1cc(C(=O)O)c(F)cc1NS(=O)(=O)c1csc(-c2ccc(-c3ccccc3O)cc2)n1 [Example 531]
21,< 100,COc1cc(C(=O)O)ccc1NS(=O)(=O)c1csc(-c2ccc(C3CCC(C)(C)CC3)cc2)n1 [Example 336]
22,< 100,COc1cc(C(=O)O)ccc1NS(=O)(=O)c1csc(-c2ccc(-c3ccc4ccccc4c3)cc2)n1 [Example 404]
23,< 100,COc1cc(C(=O)O)c(F)cc1NS(=O)(=O)c1csc(-c2ccc([C@H]3CC[C@H](C(F)(F)F)CC3)c(OC)c2F)n1 [Example 605]
